From US20210198685A1, “PLANTS CONTAINING ELITE EVENT EE-GM4 AND METHODS AND KITS FOR IDENTIFYING SUCH EVENT IN BIOLOGICAL SAMPLES, AND TREATMENT THEREOF” (priority 2018, published 2021) come the findings set out here.

Structures are written as SMILES.

This data set concerns soybean plants containing event EE-GM4. Briefly: HPPD inhibitor herbicide tolerance field trials on soybean plants containing EE-GM4. The data set is classed as in vivo, Glycine max. To be noted: for average maximum phytotoxicity: plants with EE-GM4; for tolerance / crop damage of plants with EE-GM4, herbicide applied post-emergence / tolerance of plants with EE-GM4 to herbicide applied pre-emergence: field, 2 years; for tolerance / crop damage of plants with EE-GM4, herbicide applied post-emergence: post-emergence at V2-V3 stage with crop oil concentrate and ammonium sulfate, 2x dose (210 gr/ha); for tolerance of plants with EE-GM4 to herbicide applied pre-emergence: 4x dose (420 gr/ha IFT, 840 gr/ha mesotrione). The source says: Numbers in ( ) below a treatment give the number of trials included in the bar, the number on top of each bar gives the average maximum phytotoxicity value for that treatment. Treatments applied were: IFT=isoxaflutole, MST=mesotrione, PE=pre-emergence, PO=post-emergence (at V2-V3 stage, with adjuvants crop oil concentrate and ammonium sulfate added to increase herbicide activity). Rates shown are in gram active ingredient/hectare (4× dose in pre-emergence, 2× dose in post-emergence).
Tolerance of plants comprising EE-GM4 to HPPD inhibitor herbicides was tested at different locations in the field over 2 years. […] All post-emergence treatments were at the V2-V3 stage, with adjuvants crop oil concentrate and ammonium sulfate added to increase herbicide activity.
The “maximum phytotoxicity” as used herein is the highest phytotoxicity rating recorded at any observation during the duration of a trial (with 3 to 4 observations per trial). In existing weed control applications, a normal (1×) dose for isoxaflutole (IFT) in pre- or post-emergence application and for MST in post-emergence application is 105 gr/ha, and a normal (1×) dose for mesotrione in pre-emergence application is 210 gr/ha.
Also, in several field trials across 2 years, soybean plants with event EE-GM4 had good tolerance towards experimental HPPD inhibitor compound 2-methyl-N-(5-methyl-1,3,4-oxadiazol-2-yl)-3-(methylsulfonyl)-4-(trifluoromethyl)benzamide (U.S. Pat. No. 9,101,141) when applied pre-emergence at 400 gr ai/ha or post-emergence at 200 gr ai/ha, respectively (the average maximum phytotoxicity value for each treatment was below 20%). […] All post-emergence treatments were at the V2-V3 stage, with adjuvants crop oil concentrate and ammonium sulfate added to increase herbicide activity.

For `Cc1nnc(NC(=O)c2ccc(C(F)(F)F)c(S(C)(=O)=O)c2C)o1` [2-methyl-N-(5-methyl-1,3,4-oxadiazol-2-yl)-3-(methylsulfonyl)-4-(trifluoromethyl)benzamide], the average maximum phytotoxicity result was “below 20%” (post-emergence at 200 gr ai/ha, V2-V3 stage with adjuvants) and “below 20%” (pre-emergence at 400 gr ai/ha, field trials across 2 years).
With `CS(=O)(=O)c1cc(C(F)(F)F)ccc1C(=O)c1cnoc1C1CC1` [isoxaflutole, (5-cyclopropyl-4-isoxazolyl)[2-(methylsulfonyl)-4-(trifluoromethyl)phenyl]methanone], the “tolerance / crop damage of plants with EE-GM4, herbicide applied post-emergence” value is “crop damage was a bit higher” and the “tolerance of plants with EE-GM4 to herbicide applied pre-emergence” value was “commercially relevant tolerance”.
Take `CSc1c(C(F)(F)F)ccc(C(=O)Nc2nnnn2C)c1Cl` [2-chloro-3-(methylsulfanyl)-N-(1-methyl-1H-tetrazol-5-yl)-4-(trifluoromethyl)benzamide]: for the setting “post-emergence at 100-150 gr ai/ha, V2-V3 stage with adjuvants”, the average maximum phytotoxicity turned out to be 30%.
Take `CS(=O)(=O)c1ccc(C(=O)C2C(=O)CCCC2=O)c([N+](=O)[O-])c1` [mesotrione, 2-[4-(Methylsulfonyl)-2-nitrobenzoyl]cyclohexane-1,3-dione]: the “tolerance / crop damage of plants with EE-GM4, herbicide applied post-emergence” value is reported as “commercially relevant tolerance” and the “tolerance of plants with EE-GM4 to herbicide applied pre-emergence” value is “commercially relevant tolerance”.
